Values quoted from earlier work as cited in patent US20090215766A1, “TETRACYCLIC INHIBITORS OF JANUS KINASES” (Incyte Corporation, priority 2004, published 2009).

Columns and labels:
[1] = test system: NOD mouse model of autoimmune type 1 diabetes
[2] = test system: myeloid dendritic cells (DCs); details: CD40-induced maturation of myeloid DCs
[3] = test system: IL-6-dependent MM cell lines

For `COc1cc2ncnc(Nc3ccc(O)cc3)c2cc1OC` [JANEX-1], the onset of diabetes [1] is given as “delayed the onset of diabetes”.
For `COc1cc2ncnc(Nc3ccc(O)c(Br)c3)c2cc1OC` [WHI-P-154], the “CD40-induced DC maturation effects (costimulatory molecule expression, IL-12 production, allogeneic stimulatory capacity)” value [2] is listed as “prevented these effects”.
In the case of `N#C/C(=C\c1ccc(O)c(O)c1)C(=O)NCc1ccccc1` [tyrphostin AG490], the “ERK2 and STAT3 phosphorylation” value [3] is listed as “inhibited”, the JAK2 kinase activity [3] is listed as “inhibited” and the apoptosis [3] is listed as “induced”. The cell proliferation [3] was “suppressed”.
